According to patent publication US20240294511A1, “SOLID FORM OF INDOLE COMPOUND, PREPARATION METHOD THEREFOR AND USE THEREOF” (KEYTHERA (SUZHOU) BIO-PHARMACEUTICALS CO., LIMITED, priority 2021, published 2024):
Blank lines part the entries; values can stand above or below the molecule they belong to.

Legend:
[1] = Crystalline form transformation test (heating); format: physicochemical; settings: slowly heated to 200° C., then cooled to room temperature
Method: (§1) The solid samples obtained in the examples were analyzed for crystalline form using a PANalytical EMPYREAN equipped with a PIXceI^1D detector. The instrument parameters are as follows: scanning range: 3° (2θ) to 40° (2θ); step size: 0.013° (2θ); tube voltage and current are 45 KV and 40 mA, respectively.
Crystalline form IV was slowly heated to 200° C. and then cooled to room temperature. Samples before and after heating were collected for XRPD testing.

[2] = Pharmacokinetic test in SD rats; format: in vivo; settings: rat, blood
Method: (§2) A clear solution of crystalline form II of the compound of Formula (1) was prepared in 10% DMSO, 60% PEG 400, and 30% water for injection and administered intravenously to SD rats. An aqueous suspension of crystalline form II of the compound of Formula (1) in 0.5% sodium carboxymethylcellulose (CMC·Na) was prepared and administered orally to SD rats to investigate its pharmacokinetic characteristics.

[3] = Pharmacokinetic test in beagle dogs; format: in vivo; settings: dog, blood
Method: as §2, with “beagle dogs.” for “SD rats.”, “beagle dogs” for “SD rats”

Mechanical grinding test = format: physicochemical; settings: 0.5 g ground in a mortar for about 5 minutes
Method: as §1
0.5 g of crystalline form II was placed in a mortar and ground for about 5 minutes, then the solid was collected for XRPD testing.

Light exposure test = format: physicochemical
Method: Crystalline form II of the compound of Formula (1) was placed under conditions of light intensity not less than 1.2×10^6 Lux·hr, with near-ultraviolet energy not less than 200 w·hr/m^2, at 25° C., RH 25% for 30 days. Samples were taken at 0, 5, 10, and 30 days, respectively, to observe changes in sample characteristics, test for drying loss, measure the total impurity content by HPLC, and measure the XRPD patterns of the samples.

Solid stability test = format: physicochemical; settings: for Purity - Day 7: 7 days
Method: as §1
The HPLC measurements were performed using an Agilent HPLC 1260 series instrument.
Crystalline form II was stored separately at a sealed condition at 60° C. and at 40° C./75% RH for 7 days. The purity of the samples was determined by HPLC before and after storage, and the XRPD patterns were measured.

High temperature test = format: physicochemical; settings: 60° C.
Method: (§3) Crystalline form II of the compound of Formula (1) was placed at a high temperature of 60° C. for 30 days. Samples were taken at 0, 5, 10, and 30 days, respectively, to observe changes in sample characteristics, measure specific rotation with a polarimeter, test for drying loss, measure the total impurity content by HPLC, and measure the XRPD patterns of the samples.

High humidity test = format: physicochemical
Method: as §3, with “at 25° C. and 92.5%” for “at a”, “high humidity” for “high temperature of 60° C.”, “characteristics,” for “characteristics, measure specific rotation with a polarimeter,”

- crystalline form after heating (XRPD) [1]: transformed into crystalline form II
Compound: O=C(NC1(C23CC(C(=O)O)(C2)C3)CC1)c1cccc2ccn(Cc3cc4ccccc4o3)c12 [Crystalline form IV, 3-(1-(1-(benzofuran-2-ylmethyl)-1H-indole-7-carboxamido)cyclopropyl)bicyclo[1.1.1]pentane-1-carboxylic acid]

- clearance ([2]; single intravenous 15 mg/kg, read-out: clearance (CL)): 3.59 mL/min/kg
- Vd ([2]; single intravenous 15 mg/kg, read-out: steady-state apparent volume of distribution (Vss)): 1.18 L/kg
- AUC(0-t) ([2]; single intravenous 15 mg/kg, solution of crystalline form II in 10% DMSO, 60% PEG 400, 30% water, read-out: drug exposure (AUC0-t)): 78800 ng·h/mL
- AUC(0-t) ([2]; single oral 40 mg/kg, suspension of crystalline form II in 0.5% CMC·Na, read-out: exposure (AUC0-t)): 153000 ng·h/mL
- Cmax ([2]; single oral 40 mg/kg, suspension of crystalline form II in 0.5% CMC·Na, read-out: maximum blood drug concentration (Cmax)): 27700 ng/mL
- clearance ([3]; single intravenous 5 mg/kg, read-out: clearance (CL)): 6.64 mL/min/kg
- Vd ([3]; single intravenous 5 mg/kg, read-out: steady-state apparent volume of distribution (Vss)): 1.5 L/kg
- AUC(0-t) ([3]; single intravenous 5 mg/kg, solution of crystalline form II in 10% DMSO, 60% PEG 400, 30% water, read-out: drug exposure (AUC0-t)): 12600 ng·h/mL
- AUC(0-t) ([3]; single oral 45 mg/kg, suspension of crystalline form II in 0.5% CMC·Na, read-out: exposure (AUC0-t)): 79600 ng·h/mL
- Cmax ([3]; single oral 45 mg/kg, suspension of crystalline form II in 0.5% CMC·Na, read-out: maximum blood drug concentration (Cmax)): 32900 ng/mL
Compound: O=C(NC1(C23CC(C(=O)O)(C2)C3)CC1)c1cccc2ccn(Cc3cc4ccccc4o3)c12 [compound of Formula (1), 3-(1-(1-(benzofuran-2-ylmethyl)-1H-indole-7-carboxamido)cyclopropyl)bicyclo[1.1.1]pentane-1-carboxylic acid]

- crystalline form after grinding (XRPD) (Mechanical grinding test): remained unchanged
- crystalline form (XRPD) (Light exposure test; light exposure, 30 days): did not change
- new impurities formed (Light exposure test; light exposure, 30 days, HPLC): ≤ 0.05%
- changes in moisture and content compared to day 0 (Light exposure test; light not less than 1.2×10^6 Lux·hr, near-UV not less than 200 w·hr/m^2, 25° C., RH 25%, 30 days): no significant changes
- stability under light exposure conditions (Light exposure test; total illumination not less than 1.2×10^6 Lux·hr, near-UV not less than 200 w·hr/m^2): stable
- Purity - Day 7 (Solid stability test; HPLC, 40° C./75% RH): 99.4 Area %
- Purity at the beginning (Solid stability test; HPLC, before storage): 99.4 Area %
- Purity - Day 7 (Solid stability test; HPLC, sealed condition at 60° C.): 99.6 Area %
- crystalline form after storage (XRPD) (Solid stability test; sealed at 60° C. and at 40° C./75% RH for 7 days): remained unchanged
- stability under high-temperature conditions (High temperature test): stable
- differences in appearance, moisture, content and crystalline form compared to day 0 (High temperature test; 30 days): no significant differences
- new impurities formed (High temperature test; 30 days, HPLC): ≤ 0.05%
- differences in appearance, moisture, content and crystalline form compared to day 0 (High humidity test; 25° C., 92.5% RH, 30 days): no significant differences
- water absorption (High humidity test; 25° C., 92.5% RH, 30 days): 0.03%
- new impurities formed (High humidity test; 25° C., 92.5% RH, 30 days, HPLC): ≤ 0.05%
- stability under high humidity conditions (High humidity test; RH 92.5%): stable
Compound: O=C(NC1(C23CC(C(=O)O)(C2)C3)CC1)c1cccc2ccn(Cc3cc4ccccc4o3)c12 [Crystalline form II, 3-(1-(1-(benzofuran-2-ylmethyl)-1H-indole-7-carboxamido)cyclopropyl)bicyclo[1.1.1]pentane-1-carboxylic acid]
